US20240018110A1, “RADIOLABELED COMPOUNDS TARGETING THE PROSTATE-SPECIFIC MEMBRANE ANTIGEN” (THE UNIVERSITY OF BRITISH COLUMBIA, priority 2020, published 2024)

target: PSMA (Homo sapiens, UniProt Q04609); test: In vitro competitive binding assay
Sequence (Q04609 whole entry): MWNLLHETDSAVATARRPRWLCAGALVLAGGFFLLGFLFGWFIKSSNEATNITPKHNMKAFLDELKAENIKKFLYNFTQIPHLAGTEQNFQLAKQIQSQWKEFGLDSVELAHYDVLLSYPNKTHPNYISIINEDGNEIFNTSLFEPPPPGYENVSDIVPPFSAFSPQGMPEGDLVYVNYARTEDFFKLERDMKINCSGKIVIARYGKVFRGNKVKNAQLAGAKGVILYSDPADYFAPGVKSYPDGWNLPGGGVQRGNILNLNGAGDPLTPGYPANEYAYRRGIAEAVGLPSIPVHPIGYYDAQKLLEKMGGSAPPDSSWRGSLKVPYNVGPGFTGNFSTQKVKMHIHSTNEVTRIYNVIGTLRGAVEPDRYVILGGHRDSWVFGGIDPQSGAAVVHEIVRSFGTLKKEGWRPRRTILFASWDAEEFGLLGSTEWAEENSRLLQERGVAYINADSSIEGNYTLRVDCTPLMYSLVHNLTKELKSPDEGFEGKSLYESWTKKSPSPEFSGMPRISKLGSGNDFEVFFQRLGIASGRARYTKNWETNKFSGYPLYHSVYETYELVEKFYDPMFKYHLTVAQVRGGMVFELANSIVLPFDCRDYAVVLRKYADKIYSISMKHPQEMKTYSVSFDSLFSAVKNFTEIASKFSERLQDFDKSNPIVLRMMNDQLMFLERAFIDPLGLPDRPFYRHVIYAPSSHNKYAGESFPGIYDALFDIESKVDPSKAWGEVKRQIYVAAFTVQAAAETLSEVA

**Q.** How did the Ki turn out when `O=C(O)CCC[C@H](OC(=O)N[C@@H](CCCCNC(=O)[C@H](Cc1c2ccccc2cc2ccccc12)NC(=O)[C@H]1CC[C@H](CNC(=O)CCc2ccc(O)c(CN(CCN(CC(=O)O)Cc3cc(CCC(=O)O)ccc3O)CC(=O)O)c2)CC1)C(=O)O)C(=O)O` [AR-2-113-1, HBED-CC-PSMA-Aad-carbamate] was run?
**A.** The Ki was 3.44 nM.

**Q.** How did the Ki turn out when `O=C(O)CCC[C@@H](OC(=O)N[C@@H](CCCCNC(=O)[C@H](Cc1c2ccccc2cc2ccccc12)NC(=O)[C@H]1CC[C@H](CNC(=O)CCc2ccc(O)c(CN(CCN(CC(=O)O)Cc3cc(CCC(=O)O)ccc3O)CC(=O)O)c2)CC1)C(=O)O)C(=O)O` [AR-2-113-2, HBED-CC-PSMA-Aad-carbamate] was run?
**A.** The Ki was 56.3 nM.

**Q.** `O=C(O)CCC[C@H](NC(=O)N[C@@H](CCCCCNC(=O)[C@H](Cc1c2ccccc2cc2ccccc12)NC(=O)C1CCC(CNC(=O)CN2CCN(CC(=O)O)CCN(CC(=O)O)CCN(CC(=O)O)CC2)CC1)C(=O)O)C(=O)O` (some centres unmarked) [CCZ02010] was tested. Which Ki did it give?
**A.** Its Ki is 17 nM.

**Q.** `O=C(O)CCC[C@H](NC(=O)N[C@@H](COCCNC(=O)[C@H](Cc1c2ccccc2cc2ccccc12)NC(=O)C1CCC(CNC(=O)CN2CCN(CC(=O)O)CCN(CC(=O)O)CCN(CC(=O)O)CC2)CC1)C(=O)O)C(=O)O` (some centres unmarked) [CCZ02011] was tested. Which Ki did it give?
**A.** Its Ki is 1.23 nM.

**Q.** How did the Ki turn out when `O=C(O)CCC[C@H](NC(=O)N[C@@H](CCCONC(=O)[C@H](Cc1c2ccccc2cc2ccccc12)NC(=O)C1CCC(CNC(=O)CN2CCN(CC(=O)O)CCN(CC(=O)O)CCN(CC(=O)O)CC2)CC1)C(=O)O)C(=O)O` (some centres unmarked) [CCZ02018] was run?
**A.** The Ki was 1.61 ± 0.04 nM.

**Q.** With `O=C(O)CCC[C@H](NC(=O)N[C@@H](CSC[C@H](NC(=O)[C@H](Cc1c2ccccc2cc2ccccc12)NC(=O)C1CCC(CNC(=O)CN2CCN(CC(=O)O)CCN(CC(=O)O)CCN(CC(=O)O)CC2)CC1)C(=O)O)C(=O)O)C(=O)O` (some centres unmarked) [CCZ02032] as the compound, how does the Ki read?
**A.** The Ki was 3.2 nM.

**Q.** With `O=C(O)CCC[C@H](NC(=O)N[C@@H](CSC[C@@H](NC(=O)[C@H](Cc1c2ccccc2cc2ccccc12)NC(=O)C1CCC(CNC(=O)CN2CCN(CC(=O)O)CCN(CC(=O)O)CCN(CC(=O)O)CC2)CC1)C(=O)O)C(=O)O)C(=O)O` (some centres unmarked) [CCZ02033] as the compound, how does the Ki read?
**A.** The Ki was 461 nM.

**Q.** How did the Ki turn out when `O=C(O)CC[C@H](NC(=O)N[C@@H](C[C@H]1C[C@@H]1CNC(=O)[C@H](Cc1c2ccccc2cc2ccccc12)NC(=O)[C@H]1CC[C@H](CNC(=O)CN2CCN(CC(=O)O)CCN(CC(=O)O)CCN(CC(=O)O)CC2)CC1)C(=O)O)C(=O)O` [PD-6-49] was run?
**A.** Its Ki is 11.9 nM.
